What was measured:
[1] = target: TRPVR1 (Homo sapiens, UniProt Q8NER1); format: cell-based; parameters: key to pEC50 TRPVR1: IA = inactive
[2] = target: T1, TRPV4 channel receptor (Bos taurus, UniProt A0A8F4X677); experiment: Ca2+ influx in bovine articular chondrocytes (FlexStation); format: cell-based; conditions: bovine chondrocytes
T1 construct: endogenous in cells; host or cells: bovine articular chondrocytes

[3] = test system: wild type HEK293 cells; experiment: Intracellular calcium (FLIPR) in wild type HEK293 cells; format: cell-based; parameters: key to pEC50 wild type: IA = inactive
Procedure: (§1) TRPV4 channel receptor cDNA was inserted into the expression vector pcDNA3.1 V5-His (Invitrogen, Carlsbad, Calif.). Wildtype HEK293 cells, or HEK293 cells transfected with the human TRPV4 channel receptor: pcDNA3.1 V5-His construct, or mock transfected cells, or bovine chondrocytes, were seeded into 96-well microtitre plates at 25,000 cells/well and cultured overnight. The cells were then incubated with 4 μM Fluo-3 (Fluo-3: Molecular Probes (Eugene, Oreg.)) for 2 hours at room temperature in the dark. Dye loaded cells were washed 4× with Tyrodes buffer: (NaCl, 145 mM; KCl, 2.5 mM; Hepes, 10 mM; Glucose, 10 mM; MgCl2, 1.2 mM; CaCl2, 1.5 mM), which also contained 0.2% BSA but not probenecid. Agonists and antagonists were also prepared in Tyrodes buffer. Cells were preincubated for 30 minutes with antagonist or buffer. Agonist addition and measurement of cytoplasmic calcium concentration was performed in the FLIPR (Smart, et al., (2000) Br. J. Pharmacol. 129, 227-230).

[4] = test system: cells transfected with empty vector; experiment: Intracellular calcium (FLIPR) in HEK293 cells transfected with empty vector; format: cell-based; parameters: key to pEC50 empty vector: IA = inactive
Procedure: as §1

[5] = target: TRPV4 channel receptor (Rattus norvegicus, UniProt Q9ERZ8); experiment: Ca2+ influx in rat articular chondrocytes (FlexStation); conditions: rat chondrocytes
[6] = test system: TRPV4 channel receptors; experiment: Activation of TRPV4 channel receptors in cartilage explants; format: cell-based, human, rat, rabbit, mouse, canine, monkey, or bovine; conditions: compared with chondrocytes extracted from a cartilage matrix
[7] = target: T2, TRPV4 channel receptor (Homo sapiens, UniProt Q9HBA0); experiment: Intracellular calcium (FLIPR, Fluo-3) in HEK293 cells transfected with human TRPV4 channel receptor; format: cell-based; parameters: V5-His (from the vector's name only); expressed in transfected cells; host or cells: HEK293
Procedure: as §1

[8] = target: T2, TRPV4 channel receptor; experiment: Ca2+ influx in human articular chondrocytes (FlexStation); conditions: human chondrocytes
[9] = target: T3, TRPV4 channel receptor endogenously expressed by chondrocytes (Bos taurus, UniProt A0A8F4X677); experiment: Intracellular calcium (FLIPR) in bovine articular chondrocytes; format: cell-based
T3 construct: endogenous in cells; host or cells: bovine articular chondrocytes
Procedure: as §1
The response was dependent upon extracellular calcium ions and was blocked by the channel blocker, ruthenium red.

[10] = intracellular calcium, mean ± s.e.mean, n = 3-5

T2 sequence (Q9HBA0 whole entry): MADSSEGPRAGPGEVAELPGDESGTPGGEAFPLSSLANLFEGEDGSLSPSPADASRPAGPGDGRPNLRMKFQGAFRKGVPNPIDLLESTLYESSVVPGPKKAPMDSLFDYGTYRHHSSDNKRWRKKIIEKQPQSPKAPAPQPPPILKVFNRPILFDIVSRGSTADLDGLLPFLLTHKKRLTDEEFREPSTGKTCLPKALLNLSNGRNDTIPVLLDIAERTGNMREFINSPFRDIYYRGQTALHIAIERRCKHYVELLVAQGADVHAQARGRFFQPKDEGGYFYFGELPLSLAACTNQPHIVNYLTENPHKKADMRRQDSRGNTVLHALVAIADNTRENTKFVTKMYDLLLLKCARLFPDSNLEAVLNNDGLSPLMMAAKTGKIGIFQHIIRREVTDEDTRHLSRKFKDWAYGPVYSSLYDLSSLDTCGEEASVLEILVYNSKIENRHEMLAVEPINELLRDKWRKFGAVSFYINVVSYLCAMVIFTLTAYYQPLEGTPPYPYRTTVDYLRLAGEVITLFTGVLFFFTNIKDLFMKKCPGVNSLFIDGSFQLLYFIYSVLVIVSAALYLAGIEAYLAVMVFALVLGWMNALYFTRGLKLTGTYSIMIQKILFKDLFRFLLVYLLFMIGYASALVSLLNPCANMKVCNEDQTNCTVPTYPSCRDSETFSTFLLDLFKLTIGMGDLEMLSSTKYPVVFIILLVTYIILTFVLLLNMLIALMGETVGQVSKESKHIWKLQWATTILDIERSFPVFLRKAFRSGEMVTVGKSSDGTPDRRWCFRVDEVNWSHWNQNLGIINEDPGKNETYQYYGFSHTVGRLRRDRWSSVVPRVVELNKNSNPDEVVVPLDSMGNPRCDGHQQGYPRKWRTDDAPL
Chain of TRPVR1 (Q8NER1 whole entry): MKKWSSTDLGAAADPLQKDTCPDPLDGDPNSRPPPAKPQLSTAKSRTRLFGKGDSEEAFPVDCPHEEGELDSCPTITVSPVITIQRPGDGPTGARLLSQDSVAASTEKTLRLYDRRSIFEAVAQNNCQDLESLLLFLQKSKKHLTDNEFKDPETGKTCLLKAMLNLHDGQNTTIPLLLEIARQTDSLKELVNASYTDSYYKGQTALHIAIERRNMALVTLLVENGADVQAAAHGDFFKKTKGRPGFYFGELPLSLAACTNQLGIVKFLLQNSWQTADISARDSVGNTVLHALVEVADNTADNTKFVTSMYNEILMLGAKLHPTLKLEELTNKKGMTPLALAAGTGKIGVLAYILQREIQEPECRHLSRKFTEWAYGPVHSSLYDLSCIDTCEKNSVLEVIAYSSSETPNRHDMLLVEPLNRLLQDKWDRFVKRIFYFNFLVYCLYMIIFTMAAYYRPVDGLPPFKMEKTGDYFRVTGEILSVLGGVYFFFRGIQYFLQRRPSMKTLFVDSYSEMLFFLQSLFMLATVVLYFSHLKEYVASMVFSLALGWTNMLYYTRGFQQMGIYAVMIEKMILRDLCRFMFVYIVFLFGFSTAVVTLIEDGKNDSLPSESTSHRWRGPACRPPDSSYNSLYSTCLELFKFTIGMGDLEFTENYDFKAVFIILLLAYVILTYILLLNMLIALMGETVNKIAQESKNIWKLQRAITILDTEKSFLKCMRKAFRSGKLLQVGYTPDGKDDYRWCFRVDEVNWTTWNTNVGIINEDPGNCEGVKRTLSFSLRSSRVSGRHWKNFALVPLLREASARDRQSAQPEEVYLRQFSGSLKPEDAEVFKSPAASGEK
T1 sequence (A0A8F4X677 1-871): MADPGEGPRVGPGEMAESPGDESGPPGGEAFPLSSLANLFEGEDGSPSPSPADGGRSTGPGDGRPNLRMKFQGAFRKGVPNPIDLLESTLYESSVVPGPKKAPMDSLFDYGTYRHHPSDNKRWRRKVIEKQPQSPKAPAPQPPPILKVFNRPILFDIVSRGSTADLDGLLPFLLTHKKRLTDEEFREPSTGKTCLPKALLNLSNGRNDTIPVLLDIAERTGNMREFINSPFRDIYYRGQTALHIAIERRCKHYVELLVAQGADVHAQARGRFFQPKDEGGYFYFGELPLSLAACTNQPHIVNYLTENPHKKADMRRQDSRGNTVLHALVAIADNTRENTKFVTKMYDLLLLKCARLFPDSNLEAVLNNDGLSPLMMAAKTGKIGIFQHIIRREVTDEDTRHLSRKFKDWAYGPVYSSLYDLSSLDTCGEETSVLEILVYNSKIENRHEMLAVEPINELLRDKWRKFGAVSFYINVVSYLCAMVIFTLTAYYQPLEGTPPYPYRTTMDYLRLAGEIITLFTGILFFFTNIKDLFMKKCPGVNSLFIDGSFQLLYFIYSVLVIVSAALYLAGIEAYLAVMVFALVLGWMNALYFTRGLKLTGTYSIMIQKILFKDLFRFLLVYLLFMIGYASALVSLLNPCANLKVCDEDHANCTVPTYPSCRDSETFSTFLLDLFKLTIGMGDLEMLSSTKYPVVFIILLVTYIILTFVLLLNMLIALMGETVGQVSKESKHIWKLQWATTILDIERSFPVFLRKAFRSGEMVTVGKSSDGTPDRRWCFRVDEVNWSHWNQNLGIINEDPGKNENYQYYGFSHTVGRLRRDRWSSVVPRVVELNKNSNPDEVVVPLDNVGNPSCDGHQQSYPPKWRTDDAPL
Chain of TRPV4 channel receptor (Rattus norvegicus, UniProt Q9ERZ8) (Q9ERZ8 whole entry): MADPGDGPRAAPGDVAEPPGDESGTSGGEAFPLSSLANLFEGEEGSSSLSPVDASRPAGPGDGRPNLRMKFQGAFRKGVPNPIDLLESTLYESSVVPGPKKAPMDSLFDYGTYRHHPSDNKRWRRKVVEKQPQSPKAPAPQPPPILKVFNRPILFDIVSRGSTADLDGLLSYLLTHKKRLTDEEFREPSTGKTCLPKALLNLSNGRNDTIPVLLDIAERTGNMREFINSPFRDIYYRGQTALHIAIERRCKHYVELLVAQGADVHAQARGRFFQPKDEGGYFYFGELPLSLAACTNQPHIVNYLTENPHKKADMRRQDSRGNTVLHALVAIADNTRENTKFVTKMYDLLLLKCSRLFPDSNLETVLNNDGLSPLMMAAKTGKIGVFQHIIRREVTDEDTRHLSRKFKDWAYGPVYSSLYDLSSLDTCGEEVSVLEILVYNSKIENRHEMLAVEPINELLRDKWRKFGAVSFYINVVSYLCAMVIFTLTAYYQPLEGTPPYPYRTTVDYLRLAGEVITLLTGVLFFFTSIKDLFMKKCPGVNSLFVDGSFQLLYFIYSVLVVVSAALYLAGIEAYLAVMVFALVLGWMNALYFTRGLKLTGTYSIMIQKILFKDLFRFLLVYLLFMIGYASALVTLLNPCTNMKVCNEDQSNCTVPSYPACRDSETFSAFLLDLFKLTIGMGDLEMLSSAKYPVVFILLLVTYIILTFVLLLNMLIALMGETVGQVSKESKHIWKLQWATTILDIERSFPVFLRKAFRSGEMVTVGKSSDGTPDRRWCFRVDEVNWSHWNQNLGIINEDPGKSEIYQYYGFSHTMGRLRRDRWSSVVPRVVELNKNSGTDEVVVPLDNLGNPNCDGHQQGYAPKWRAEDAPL
T3 sequence (A0A8F4X677 1-871): as the sequence (A0A8F4X677 1-871) above

SMILES	activation of VR1 [1]	pEC50 TRPVR1 [1, 10]	Ca2+ influx [2]	effect on intracellular calcium in wild type HEK293 cells [3]	pEC50 wild type [3, 10]	effect on intracellular calcium in cells transfected with empty vector [4]	pEC50 empty vector [4, 10]	Ca2+ influx [5]	potency and efficacy in activating TRPV4 channel receptors in cartilage explants [6]	intracellular calcium in HEK293-TRPV4 channel receptor cells [7]	pEC50 TRPVR4 [7, 10]	Ca2+ influx [8]	reversal of the effects of 4α-PDD on Ca2+ influx [2]	reversal of the effects of 4α-PDD on Ca2+ influx [5]	block of the response to 4α-PDD [9]	reversal of the effects of 4α-PDD on Ca2+ influx [8]
CCCCCCCCCC(=O)O[C@@H]1[C@@H](C)[C@@]2(O)[C@@H](C=C(CO)C[C@@]3(O)C(=O)C(C)=C[C@@H]23)[C@@H]2C(C)(C)[C@]12OC(=O)CCCCCCCCC [Formula 4αPDD, 4α-phorbol-12,13-didecanoate]	did not activate VR1	IA	stimulated Ca^2+ influx	without effect	IA	without effect	IA	stimulated Ca^2+ influx	greatly diminished	increased intracellular calcium	5.73 ± 0.06	stimulated Ca^2+ influx	–	–	–	–
N.N.N.N.N.N.N.N.N.N.N.N.N.N.[Cl-].[Cl-].[Cl-].[Cl-].[Cl-].[Cl-].[O-2].[O-2].[Ru+3].[Ru+3].[Ru+4] [Ruthenium Red, reference compound]	–	–	–	–	–	–	–	–	–	–	–	–	reduce Ca^2+ influx down to baseline levels	reduce Ca^2+ influx down to baseline levels	blocked	reduce Ca^2+ influx down to baseline levels

Reference: patent publication US20070259856A1, “Method for Activating Trpv4 Channel Receptors by Agonists” (priority 2004, published 2007)
